From patent US10857209B2, “Lysosomal acid lipase and PPAR gamma ligands as immune therapies for cancer treatment” (Indiana University Research and Technology Corporation, priority 2016, dated 2020)

T1: PPARγ (Mus musculus, UniProt P37238)
T1 construct: host or cells: lal-/- mice (lung)
T1 sequence (P37238 1-505): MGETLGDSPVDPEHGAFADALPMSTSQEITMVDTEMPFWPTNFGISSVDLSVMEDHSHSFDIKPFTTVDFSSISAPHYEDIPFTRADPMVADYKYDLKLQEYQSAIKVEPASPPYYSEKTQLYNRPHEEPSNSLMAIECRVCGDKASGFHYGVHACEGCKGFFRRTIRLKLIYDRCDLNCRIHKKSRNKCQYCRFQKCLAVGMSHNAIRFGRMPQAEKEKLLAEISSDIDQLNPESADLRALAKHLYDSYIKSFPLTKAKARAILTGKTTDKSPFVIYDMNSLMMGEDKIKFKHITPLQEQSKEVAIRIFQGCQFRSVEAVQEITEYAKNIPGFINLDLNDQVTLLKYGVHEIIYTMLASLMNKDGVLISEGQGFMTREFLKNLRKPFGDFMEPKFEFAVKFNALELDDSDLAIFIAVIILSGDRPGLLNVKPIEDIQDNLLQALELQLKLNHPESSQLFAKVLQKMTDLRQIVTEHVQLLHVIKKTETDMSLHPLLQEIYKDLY


How the values were obtained:
[1] = test system: Ly6G+CD11b+ cells; test: Mitochondrial membrane potential (JC-1) in Ly6G+CD11b+ cells by flow cytometry; assay type: cell-based, mouse; details: lal−/− Ly6G+CD11b+ cells; 20 μmol/L, 48 hours; vs ethanol
Protocol: The reactive oxygen species (ROS) level and mitochondrial membrane potential in MDSCs was measured by flow cytometry. Briefly, bone marrow cells were first treated with or without 20 μmol/L 9-HODE or ethanol for 2 days. For ROS level detection, cells were harvested, washed, and stained with 2′,7′-dichlorofluorescein diacetate (2 μmol/L, Invitrogen), allophycocyanin cy7-conjugated anti-Ly6G Ab, and phycoerythrin cy7-conjugated anti-CD 11b Ab (eBioscience) at 37° C. for 15 minutes. After PBS wash, the ROS level in Ly6G^+CD11b^+ cells was analyzed using a LSRII machine (BD Biosciences).
For mitochondrial membrane potential measurement, cells were stained with the fluorescent dye JC-1 (2 μmol/L, Molecular Probes, Eugene, Oreg., USA), allophycocyanin cy7-conjugated anti-Ly6G antibody, and phycoerythrin cy7-conjugated anti-CD 11b antibody (eBioscience) at 37° C. for 15 minutes, and then analyzed for phycoerythrin (JC-1 red) and fluorescein isothiocyanate (JC-1 green) fluorescent cells in Ly6G^+CD11b^+ cells by flow cytometry. Cells treated with 50 μmol/L carbonyl cyanide 3-chlorophenylhydrazone for 5 minutes were served as a fluorescein isothiocyanate-positive control.

[2] = test system: B16 melanoma cells; test: Mouse metastasis model, pre-treated MDSCs co-injected intravenously with B16 melanoma cells; assay type: in vivo; details: two weeks
Protocol: The tumor growth and metastasis model were described in Zhao et al., Oncogene. 2015; 34:1938-48. MDSCs and B16 melanoma cells were collected separately. A pilot study was performed to determine the best ratio between MDSCs and B16 melanoma cells. To test the tumor growth potential, 6×10^5 pre-treated MDSCs and 2×10^5 B16 melanoma cells were mixed, centrifuged and re-suspended in 100 μL PBS, and then injected subcutaneously into the flank region of 3-month old recipient lal^+/+ mice. Tumor volume (length×width^2×π/6) was monitored every week for 4 weeks. To test the metastasis potential, 2×10^6 pre-treated MDSCs and 5×10^5 B16 melanoma cells were mixed and incubated at 37° C., 5% CO2 for 30 minutes. After the incubation, cells were centrifuged, re-suspended, and injected intravenously into 3-month old lal^+/+ mice. Two weeks after the injection, the mice were sacrificed and the lungs were inflated with 4% paraformaldehyde for examination of metastasis.
The harvested lungs were fixed with 4% paraformaldehyde in PBS at 4° C. for overnight. After fixation and embedding in paraffin, tissue sections were cut to 5 μm thick. Hematoxylin and eosin (H&E) staining and immunohistochemical (IHC) staining with anti-Ki67 antibody were performed by the Histological Core Facility, Department of Pathology and Laboratory Medicine, Indiana University. Images were taken by Olympus microscopy image system (Olympus, Tokyo, Japan).

[3] = biological target: T1, PPARγ; test: T cell numbers in lal−/− mice (data not shown)
[4] = test system: B16 melanoma cells; test: B16 melanoma growth and metastasis in myeloid-specific hLAL Tg/KO triple mice; assay type: in vivo, mouse; details: myeloid-specific expression
Excerpt: lal^+/+ and lal^−/− mice of the FVBN background were bred in house. c-fms-rtTA/(TetO)7-CMV-hLAL; lal^−/− (Tg/KO) triple mice of the FVBN background is a previously generated triple transgenic mouse model with myeloid-specific doxycycline-inducible expression of wild-type human LAL (hLAL) in lal^−/− mice under the control of the c-fms promoter. All scientific protocols involving the use of animals have been approved by the Institutional Animal Care and Use Committee of Indiana University School of Medicine and followed guidelines established by the Panel on Euthanasia of the American Veterinary Medical Association. Animals were housed under Institutional Animal Care and Use Committee-approved conditions in a secured animal facility at the Indiana University School of Medicine.
Four-month-old lal^+/+ or lal^−/− mice were inoculated with 1×10^5 B16 melanoma cells subcutaneously into the flank region, and tumor size (length×width^2×π/6) was monitored every week for 3 weeks. For intravenous injection of B16 melanoma cells, 5×10^5 B16 melanoma cells in 200 μl PBS were injected into 4-month-old lal^+/+ or lal^−/− mice via tail vein. A pilot study was performed to determine the best ratio between MDSCs and B16 melanoma cells. For co-injection of MDSCs and B16 melanoma cells via tail vein, 2×10^6 MDSCs and 5×10^5 B16 melanoma cells were mixed and incubated at 37° C. and 5% CO2 for 30 minutes. […]

[5] = pre-treated lal−/− Ly6G+ cells + B16 i.v.

Molecule	mitochondrial membrane potential [1]	B16 melanoma colonization in the lung ([2]; pre-treated lal+/+ Ly6G+ cells + B16 i.v.)	B16 melanoma colonies in the lungs ([2]; pre-treated lal−/− Ly6G+ cells + B16 i.v. into lal+/+ mice, vs ethanol)	Ki67 positive cells in lung sections (IHC staining) [2, 5]	neoplastic cells in lung sections (H&E staining) [2, 5]	decreased T cell numbers in lal−/− mice [3]	decrease of tumor volume vs untreated mice ([4]; doxycycline-treated Tg/KO triple mice, B16 s.c., 2 weeks post-injection) [%]	melanoma colonies in the lungs ([4]; doxycycline-treated vs untreated Tg/KO triple mice, B16 i.v., 2 weeks)
9-hydroxyoctadecadienoic acid [9-HODE]	partially recovered	did not affect B16 melanoma colonization in the lung	less B16 melanoma colonies	less Ki67 positive cells	less neoplastic cells	reversed		
hLAL: human lysosomal acid lipase expressed from a doxycycline-controlled tissue-specific transgene in lal−/− mice; never administered as a protein (protein, left off: small tags and cut ends, human lysosomal acid lipase expressed from a doxycycline-controlled tissue-specific transgene in lal−/− mice; never administered as a protein) GPKPVVFLQHGLLADSSNWVTNLANSSLGFILADAGFDVWMGNSRGNTWSRKHKTLSVSQDEFWAFSYDEMAKYDLPASINFILNKTGQEQVYYVGHSQGTTIGFIAFSQIPELAKRIKMFFALGPVASVAFCTSPMAKLGRLPDHLIKDLFGDKEFLPQSAFLKWLGTHVCTHVILKELCGNLCFLLCGFNERNLNMSRVDVYTTHSPAGTSVQNMLHWSQAVKFQKFQAFDWGSSAKNYFHYNQSYPPTYNVKDMLVPTAVWSGGHDWLADVYDVNILLTQITNLVFHESIPEWEHLDFIWGLDAPWRLYNKIINLMRKYQ							50	reduced number of melanoma colonies in the lungs
